# According to PubChem BioAssay (NCI):
#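 In this assay, cells in 96-well plates receive the compound at five concentrations for 48 hours. Endpoints are linearly interpolated between the surrounding concentrations. GI50 = concentration required for 50% inhibition of growth. The concentration for full growth arrest is given as TGI.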
# Columns and labels:
# Assay in all cases: NCI anticancer screen, dose series, 48 h
# [1] = system: 786-0 renal
# [2] = system: A498 renal
# [3] = system: A549 NSCLC
# [4] = system: ACHN renal
# [5] = system: BT-549 breast
# [6] = system: CAKI-1 renal
# [7] = system: CCRF-CEM leukemia
# [8] = system: COLO 205 colon
# [9] = system: DU-145 prostate
# [10] = system: HCC-2998 colon
# [11] = system: HCT-116 colon
# [12] = system: HCT-15 colon
# [13] = system: HL-60(TB) leukemia
# [14] = system: HOP-62 NSCLC
# [15] = system: HOP-92 NSCLC
# [16] = system: HS 578T breast
# [17] = system: HT29 colon
# [18] = system: IGROV1 ovarian
# [19] = system: K-562 leukemia
# [20] = system: KM12 colon
# [21] = system: LOX IMVI melanoma
# [22] = system: M14 melanoma
# [23] = system: MALME-3M melanoma
# [24] = system: MCF7 breast
# [25] = system: MDA-MB-231 breast
# [26] = system: MDA-MB-435
# [27] = system: MOLT-4 leukemia
# [28] = system: NCI-H226 lung
# [29] = system: NCI-H23 lung
# [30] = system: NCI-H460 lung
# [31] = system: NCI-H522 lung
# [32] = system: NCI/ADR-RES ovarian
# [33] = system: OVCAR-3 ovarian
# [34] = system: OVCAR-4 ovarian
# [35] = system: OVCAR-5 ovarian
# [36] = system: OVCAR-8 ovarian
# [37] = system: PC-3 prostate
# [38] = system: RPMI-8226 leukemia
# [39] = system: SF-268 CNS
# [40] = system: SF-295 CNS
# [41] = system: SF-539 CNS
# [42] = system: SK-MEL-2 melanoma
# [43] = system: SK-MEL-28 melanoma
# [44] = system: SK-MEL-5 melanoma
# [45] = system: SK-OV-3 ovarian
# [46] = system: SN12C renal
# [47] = system: SNB-19 CNS
# [48] = system: SNB-75 CNS
# [49] = system: SR leukemia
# [50] = system: SW-620 colon
# [51] = system: T-47D breast
# [52] = system: TK-10 renal
# [53] = system: UACC-257 melanoma
# [54] = system: UACC-62 melanoma
# [55] = system: UO-31 renal
# [56] = system: RXF 393 renal
# [57] = system: U251 CNS
smiles,measurement,setting,value
Cc1[nH]c2ccccc2c(=O)c1CC=C(Cl)Cl,GI50,[1],35.3 µM
same,TGI,[1],> 100 µM
same,GI50,[2],14.5 µM
same,TGI,[2],86.8 µM
same,GI50,[3],49.4 µM
same,TGI,[3],> 100 µM
same,GI50,[4],37.3 µM
same,TGI,[4],> 100 µM
same,GI50,[5],47 µM
same,TGI,[5],> 100 µM
same,GI50,[6],63.9 µM
same,TGI,[6],> 100 µM
same,GI50,[7],> 100 µM
same,TGI,[7],> 100 µM
same,GI50,[8],> 100 µM
same,TGI,[8],> 100 µM
same,GI50,[9],88.2 µM
same,TGI,[9],> 100 µM
same,GI50,[10],> 100 µM
same,TGI,[10],> 100 µM
same,GI50,[11],45.3 µM
same,TGI,[11],> 100 µM
same,GI50,[12],> 100 µM
same,TGI,[12],> 100 µM
same,GI50,[13],> 100 µM
same,TGI,[13],> 100 µM
same,GI50,[14],24.1 µM
same,TGI,[14],64.5 µM
same,GI50,[15],15 µM
same,TGI,[15],70.3 µM
same,GI50,[16],24.6 µM
same,TGI,[16],> 100 µM
same,GI50,[17],> 100 µM
same,TGI,[17],> 100 µM
same,GI50,[18],64.2 µM
same,TGI,[18],> 100 µM
same,GI50,[19],99.2 µM
same,TGI,[19],> 100 µM
same,GI50,[20],> 100 µM
same,TGI,[20],> 100 µM
same,GI50,[21],> 100 µM
same,TGI,[21],> 100 µM
same,GI50,[22],> 100 µM
same,TGI,[22],> 100 µM
same,GI50,[23],> 100 µM
same,TGI,[23],> 100 µM
same,GI50,[24],58 µM
same,TGI,[24],> 100 µM
same,GI50,[25],31 µM
same,TGI,[25],> 100 µM
same,GI50,[26],> 100 µM
same,TGI,[26],> 100 µM
same,GI50,[27],82.3 µM
same,TGI,[27],> 100 µM
same,GI50,[28],25.9 µM
same,TGI,[28],> 100 µM
same,GI50,[29],50.6 µM
same,TGI,[29],> 100 µM
same,GI50,[30],72.5 µM
same,TGI,[30],> 100 µM
same,GI50,[31],24.6 µM
same,TGI,[31],> 100 µM
same,GI50,[32],44.2 µM
same,TGI,[32],> 100 µM
same,GI50,[33],43.5 µM
same,TGI,[33],> 100 µM
same,GI50,[34],18.6 µM
same,TGI,[34],79.9 µM
same,GI50,[35],> 100 µM
same,TGI,[35],> 100 µM
same,GI50,[36],66.6 µM
same,TGI,[36],> 100 µM
same,GI50,[37],99.9 µM
same,TGI,[37],> 100 µM
same,GI50,[38],84.4 µM
same,TGI,[38],> 100 µM
same,GI50,[39],31.2 µM
same,TGI,[39],> 100 µM
same,GI50,[40],32 µM
same,TGI,[40],> 100 µM
same,GI50,[41],39.4 µM
same,TGI,[41],> 100 µM
same,GI50,[42],28.4 µM
same,TGI,[42],> 100 µM
same,GI50,[43],52.9 µM
same,TGI,[43],> 100 µM
same,GI50,[44],27.5 µM
same,TGI,[44],> 100 µM
same,GI50,[45],24.2 µM
same,TGI,[45],55.6 µM
same,GI50,[46],50.3 µM
same,TGI,[46],> 100 µM
same,GI50,[47],25.7 µM
same,TGI,[47],> 100 µM
same,GI50,[48],10.6 µM
same,TGI,[48],37.5 µM
same,GI50,[49],58.1 µM
same,TGI,[49],> 100 µM
same,GI50,[50],> 100 µM
same,TGI,[50],> 100 µM
same,GI50,[51],29 µM
same,TGI,[51],> 100 µM
same,GI50,[52],25.5 µM
same,TGI,[52],99.3 µM
same,GI50,[53],57 µM
same,TGI,[53],> 100 µM
same,GI50,[54],34.5 µM
same,TGI,[54],> 100 µM
same,GI50,[55],42.8 µM
same,TGI,[55],> 100 µM
COC1C=COC2(C)Oc3c(C)c(O)c4c(O)c(c(C5SCCS5)c(O)c4c3C2=O)NC(=O)C(C)=C/C=C\C(C)C2OC(C)(C)OC(C2C)C(C)C(OC(C)=O)C1C (stereo not given),TGI,[1],44 µM
same,TGI,[2],29.3 µM
same,TGI,[3],22.6 µM
same,TGI,[4],6.53 µM
same,TGI,[5],9.26 µM
same,TGI,[6],27.7 µM
same,TGI,[7],> 100 µM
same,TGI,[8],> 100 µM
same,TGI,[9],59.8 µM
same,TGI,[10],20.2 µM
same,TGI,[11],> 100 µM
same,TGI,[12],38.4 µM
same,TGI,[13],17.4 µM
same,TGI,[14],74.4 µM
same,TGI,[15],24.9 µM
same,TGI,[16],63.3 µM
same,TGI,[18],30.7 µM
same,TGI,[19],> 100 µM
same,TGI,[20],> 100 µM
same,TGI,[21],28.3 µM
same,TGI,[22],> 100 µM
same,TGI,[23],36.5 µM
same,TGI,[24],7.77 µM
same,TGI,[25],45.7 µM
same,TGI,[26],47.9 µM
same,TGI,[27],> 100 µM
same,TGI,[28],22.1 µM
same,TGI,[29],80.9 µM
same,TGI,[30],63.2 µM
same,TGI,[31],23 µM
same,TGI,[32],> 100 µM
same,TGI,[33],> 100 µM
same,TGI,[34],54.7 µM
same,TGI,[35],> 100 µM
same,TGI,[36],28.5 µM
same,TGI,[37],> 100 µM
same,TGI,[38],> 100 µM
same,TGI,[56],30 µM
same,TGI,[39],29.3 µM
same,TGI,[40],28.7 µM
same,TGI,[41],86.4 µM
same,TGI,[42],23.2 µM
same,TGI,[43],> 100 µM
same,TGI,[44],15.5 µM
same,TGI,[45],> 100 µM
same,TGI,[46],16.6 µM
same,TGI,[47],> 100 µM
same,TGI,[48],> 100 µM
same,TGI,[50],> 100 µM
same,TGI,[51],> 100 µM
same,TGI,[52],24.8 µM
same,TGI,[57],> 100 µM
same,TGI,[53],7.89 µM
same,TGI,[54],15 µM
same,TGI,[55],32.6 µM
